Where two headings read alike, the source gives them in different places.
Experiments:
[1] = cited from earlier work
[2] = Ex vivo skin permeation, static Franz-type diffusion cells, HPLC-DAD relative quantification; format: in vitro ADME, porcine; settings: for total permeated amounts (AUC), comparison of the two ointments: after 32 h, lard ointment versus wool wax/castor oil ointment; for Enhancement Factor: mean flux from lard versus wool wax/castor oil; for Mean Flux Based on AUC/cm^2/h (relative mass flux): infinite dose 500 mg, 32 °C, n = 9 cells; for time after which detectable in acceptor samples: wool wax/castor oil and Picea-Salbe ointments
Experimental: Skin permeation studies were performed using dermatomed porcine ear skin and static Franz-type diffusion cells (PermeGear, Hellertown, PA, USA, permeation area of 0.95 cm^2, acceptor volume of 2 mL). Porcine ears were obtained after sacrifice from a local abattoir (Johann Gantner GmbH, Gemeinde Hollabrunn, Austria, male and female animals at six months of age). The ears were cleaned under running water and were dried and stored at −18 °C until use.
Fresh vehicles were prepared 48 h before the start of the experiments. Skin from the dorsal side of the ears was cut to a thickness of 400 µm with a dermatome (Aesculap GA 630 DBP, Aesculap AG, Tuttlingen, Germany). Hair was removed with scissors. The skin was cut into 1 × 1 cm pieces and was clamped between donor and acceptor chamber. The acceptor medium consisted of a mixture of phosphate-buffered saline and ethanol (60:40% v/v) to ensure sink conditions. The phosphate-buffered saline was prepared as described in the Pharmacopoeia Europaea (0.012 M, pH of 7.4, 0.238% w/w sodium monohydrogen phosphate, 0.019% w/w potassium dihydrogen phosphate, and 0.8% w/w sodium chloride). Before starting the experiments, the transepidermal water loss (TEWL) was measured with a closed-chamber device and a coupling adapter (Aquaflux® AF200, Biox Systems Ltd., London, UK) to ensure consistent skin quality and barrier function.
The ointments were applied to the donor chambers at infinite dose conditions (500 mg of formulation). The donor compartment and sampling arm were occluded with Parafilm to prevent evaporation of sample or acceptor fluid. The diffusion cells were kept in a water bath at 32 °C to simulate skin surface temperature. Magnetic stirring was employed to avoid concentration layers within the acceptor fluid. Cells were regularly checked for air bubbles. After predefined intervals (2, 4, 6, 8, 24, 28, and 32 h), an aliquot of 200 μL of acceptor medium was taken for analysis and was replaced with fresh acceptor medium at 32 °C.
The most suitable formulation was chosen for analysis of permeation potential as well as the commercial product Picea-Salbe®. Three individual permeation experiments with n = 3 cells were performed for formulations and controls. The final results depict mean values ± SDs of n = 9 cells per formulation. As controls, the respective ointment bases without PSB as well as the plain acceptor medium alone were used.
For the analysis of samples drawn from Franz diffusion cells, a Shimadzu HPLC instrumentation with diode array detection (SHIMADZU Autosampler SIL-20AC HAT, SHIMADZU Column Oven CTO-20AC, SHIMADZU Communications Bus Module CBM-20A, SHIMADZU Degasser DGU-20A5, SHIMADZU Diode Array Detector SPD-M20A, SHIMADZU Liquid Chromatograph LC-20AD, SHIMADZU LabSolutions Software 5.81, Shimadzu, Kyoto, Japan) was used. A reversed-phase C18 column (LiChrospher 100 RP18e, 5 μm, 250 × 4 mm, Merck KGaA, Darmstadt, Germany) was employed as stationary phase. Double-distilled water + 0.1% formic acid (solvent A) and acetonitrile + 0.1% formic acid (solvent B) served as mobile phase, and gradient elution at 1 mL/min flow rate was applied as follows: 15% solvent B rose to 95% solvent B within 45 min (rate of 1.77%/min) followed by 5 min washing step at 98% solvent B and re-equilibration for 10 min with 15% solvent B. Samples drawn from Franz diffusion cells were centrifuged, and 10 μL were injected into the system. PSB samples were dissolved in acetone to a final concentration of 5 mg/mL, and 2 μL were analyzed. […] Peak areas (AUC) were obtained using the SHIMADZU LabSolutions Software 5.81 (Shimadzu, Kyoto, Japan) and were further utilized for interpretation of data.

[3] = vehicle lard (Picea-Salbe, 20% spruce balm)
[4] = vehicle wool wax/castor oil with 20% PSB (batch PSB5)

Compound: CC(C)C1=CC2=CC[C@@H]3[C@](C)(CCC[C@@]3(C)C(=O)O)[C@H]2CC1 [Abietic acid]
- Effects contributing to wound healing ([1]; Diterpene resin acids (302 Da)): re-epithelialization boosting [9], antimicrobial [24, 25, 26, 27], anti-inflammatory [28, 29, 30], and antioxidant effects [31]

Compound: CC(C)=C1C=C2CCC3C(C)(C(=O)O)CCCC3(C)C2CC1 (centres unmarked) [Neoabietic acid]
- Effects contributing to wound healing ([1]; Diterpene resin acids (302 Da)): re-epithelialization boosting [9], antimicrobial [24, 25, 26, 27], anti-inflammatory [28, 29, 30], and antioxidant effects [31]

Compound: CC(C)(O)c1ccc2c(c1)[C@H](O)CC1[C@](C)(C(=O)O)CCC[C@]21C (stereo partly drawn) [7α,15-Dihydroxy-dehydroabietic acid]
- Effects contributing to wound healing ([1]; Hydroxylated resin acids): re-epithelialization boosting [9], antimicrobial [22], and anti-inflammatory effects [23]

Compound: COc1cc(/C=C/C(=O)O)ccc1O [Ferulic acid]
- Effects contributing to wound healing ([1]; Hydroxycinnamic acids): antioxidant, antimicrobial, and anti-inflammatory effects [19]

Compound: C=C[C@@]1(C)C=C2CC[C@@H]3[C@](C)(CCC[C@@]3(C)C(=O)O)[C@H]2CC1 [Pimaric acid]
- Effects contributing to wound healing ([1]; Diterpene resin acids (302 Da)): re-epithelialization boosting [9], antimicrobial [24, 25, 26, 27], anti-inflammatory [28, 29, 30], and antioxidant effects [31]

Compound: O=C(O)C=Cc1ccc(O)cc1 [p-Coumaric acid]
- Effects contributing to wound healing ([1]; Hydroxycinnamic acids): antioxidant, antimicrobial, and anti-inflammatory effects [19]

Compound: CC(C)c1ccc2c(c1)CC[C@H]1[C@](C)(C(=O)O)CCC[C@]21C [dehydroabietic acid, Dehydroabietic acid]
- total permeated amounts (AUC), comparison of the two ointments [2]: highly comparable
- Enhancement Factor [2]: 1.1
- Mean Flux Based on AUC/cm^2/h (relative mass flux) [2, 3]: 24.041 ± 7.099 AUC/cm^2/h
- Mean Flux Based on AUC/cm^2/h (relative mass flux) [2, 4]: 21.848 ± 7.791 AUC/cm^2/h
- time after which detectable in acceptor samples [2]: 8 h
- Effects contributing to wound healing ([1]; Diterpene resin acids (300 Da)): re-epithelialization boosting [9], anti-inflammatory [23], and antimicrobial effects [24]

Compound: CC(C)(O)c1ccc2c(c1)CC[C@H]1[C@](C)(C(=O)O)CCC[C@]21C [15-hydroxy-dehydroabietic acid, 15-Hydroxy-dehydroabietic acid]
- total permeated amounts (AUC), comparison of the two ointments [2]: a similar trend was observed
- Enhancement Factor [2]: 1.8
- Mean Flux Based on AUC/cm^2/h (relative mass flux) [2, 3]: 25.558 ± 9.673 AUC/cm^2/h
- Mean Flux Based on AUC/cm^2/h (relative mass flux) [2, 4]: 13.606 ± 6.196 AUC/cm^2/h
- time after which detectable in acceptor samples [2]: 24 h
- Effects contributing to wound healing ([1]; Hydroxylated resin acids): re-epithelialization boosting [9], antimicrobial [22], and anti-inflammatory effects [23]

Compound: CC(C)C1=CC2=C(CC1)[C@@]1(C)CCC[C@@](C)(C(=O)O)[C@@H]1CC2 [Palustric acid]
- Effects contributing to wound healing ([1]; Diterpene resin acids (302 Da)): re-epithelialization boosting [9], antimicrobial [24, 25, 26, 27], anti-inflammatory [28, 29, 30], and antioxidant effects [31]

Compound: C=C[C@]1(C)C=C2CC[C@@H]3[C@](C)(CCC[C@@]3(C)C(=O)O)[C@H]2CC1 [Sandaracopimaric acid]
- Effects contributing to wound healing ([1]; Diterpene resin acids (302 Da)): re-epithelialization boosting [9], antimicrobial [24, 25, 26, 27], anti-inflammatory [28, 29, 30], and antioxidant effects [31]

Compound: O=C(O)/C=C/c1ccc(O)c(O)c1 [Caffeic acid]
- Effects contributing to wound healing ([1]; Hydroxycinnamic acids): antioxidant, antimicrobial, and anti-inflammatory effects [19]

Compound: CC(C)C1=CC[C@H]2C(=C1)CC[C@@H]1[C@]2(C)CCC[C@@]1(C)C(=O)O [Levopimaric acid]
- Effects contributing to wound healing ([1]; Diterpene resin acids (302 Da)): re-epithelialization boosting [9], antimicrobial [24, 25, 26, 27], anti-inflammatory [28, 29, 30], and antioxidant effects [31]

Compound: Pinoresinol
- Effects contributing to wound healing ([1]; Lignans): antifungal [20], antioxidant, anti-inflammatory [21], and re-epithelialization boosting effects [9]

Compound: C=C[C@@]1(C)CC[C@H]2C(=CC[C@@H]3[C@]2(C)CCC[C@@]3(C)C(=O)O)C1 [Isopimaric acid]
- Effects contributing to wound healing ([1]; Diterpene resin acids (302 Da)): re-epithelialization boosting [9], antimicrobial [24, 25, 26, 27], anti-inflammatory [28, 29, 30], and antioxidant effects [31]

Compound: CC(C)c1ccc2c(c1)C(O)CC1[C@](C)(C(=O)O)CCC[C@]21C (some centres unmarked) [7-Hydroxy-dehydroabietic acid]
- Effects contributing to wound healing ([1]; Hydroxylated resin acids): re-epithelialization boosting [9], antimicrobial [22], and anti-inflammatory effects [23]

Compound: CC(C)(O)c1ccc2c(c1)[C@@H](O)CC1[C@](C)(C(=O)O)CCC[C@]21C (stereo partly drawn) [7β,15-Dihydroxy-dehydroabietic acid]
- Effects contributing to wound healing ([1]; Hydroxylated resin acids): re-epithelialization boosting [9], antimicrobial [22], and anti-inflammatory effects [23]

Reference: publication PMC10302299, “Spruce Balm-Based Semisolid Vehicles for Wound Healing: Effect of Excipients on Rheological Properties and Ex Vivo Skin Permeation” (Pharmaceutics, 2023)
